Results taken from patent publication US20220162192A1 (ESCAPE Bio, Inc., priority 2019, published 2022).
Where two headings read alike, the source gives them in different places.

Experiments:
[1] = target: T1, Recombinant wild type LRRK2 protein (Homo sapiens, UniProt Q5S007); experiment: LanthaScreen Kinase Activity Assay (TR-FRET), wild type LRRK2; format: biochemical; settings: 25 μM ATP, 400 nM LRRKtide, 2.9 nM kinase, 60 min at room temperature, read-out: LRRK2 WT IC50
T1 construct: purchased Life Technologies PR8604B
T1 sequence (Q5S007 whole entry): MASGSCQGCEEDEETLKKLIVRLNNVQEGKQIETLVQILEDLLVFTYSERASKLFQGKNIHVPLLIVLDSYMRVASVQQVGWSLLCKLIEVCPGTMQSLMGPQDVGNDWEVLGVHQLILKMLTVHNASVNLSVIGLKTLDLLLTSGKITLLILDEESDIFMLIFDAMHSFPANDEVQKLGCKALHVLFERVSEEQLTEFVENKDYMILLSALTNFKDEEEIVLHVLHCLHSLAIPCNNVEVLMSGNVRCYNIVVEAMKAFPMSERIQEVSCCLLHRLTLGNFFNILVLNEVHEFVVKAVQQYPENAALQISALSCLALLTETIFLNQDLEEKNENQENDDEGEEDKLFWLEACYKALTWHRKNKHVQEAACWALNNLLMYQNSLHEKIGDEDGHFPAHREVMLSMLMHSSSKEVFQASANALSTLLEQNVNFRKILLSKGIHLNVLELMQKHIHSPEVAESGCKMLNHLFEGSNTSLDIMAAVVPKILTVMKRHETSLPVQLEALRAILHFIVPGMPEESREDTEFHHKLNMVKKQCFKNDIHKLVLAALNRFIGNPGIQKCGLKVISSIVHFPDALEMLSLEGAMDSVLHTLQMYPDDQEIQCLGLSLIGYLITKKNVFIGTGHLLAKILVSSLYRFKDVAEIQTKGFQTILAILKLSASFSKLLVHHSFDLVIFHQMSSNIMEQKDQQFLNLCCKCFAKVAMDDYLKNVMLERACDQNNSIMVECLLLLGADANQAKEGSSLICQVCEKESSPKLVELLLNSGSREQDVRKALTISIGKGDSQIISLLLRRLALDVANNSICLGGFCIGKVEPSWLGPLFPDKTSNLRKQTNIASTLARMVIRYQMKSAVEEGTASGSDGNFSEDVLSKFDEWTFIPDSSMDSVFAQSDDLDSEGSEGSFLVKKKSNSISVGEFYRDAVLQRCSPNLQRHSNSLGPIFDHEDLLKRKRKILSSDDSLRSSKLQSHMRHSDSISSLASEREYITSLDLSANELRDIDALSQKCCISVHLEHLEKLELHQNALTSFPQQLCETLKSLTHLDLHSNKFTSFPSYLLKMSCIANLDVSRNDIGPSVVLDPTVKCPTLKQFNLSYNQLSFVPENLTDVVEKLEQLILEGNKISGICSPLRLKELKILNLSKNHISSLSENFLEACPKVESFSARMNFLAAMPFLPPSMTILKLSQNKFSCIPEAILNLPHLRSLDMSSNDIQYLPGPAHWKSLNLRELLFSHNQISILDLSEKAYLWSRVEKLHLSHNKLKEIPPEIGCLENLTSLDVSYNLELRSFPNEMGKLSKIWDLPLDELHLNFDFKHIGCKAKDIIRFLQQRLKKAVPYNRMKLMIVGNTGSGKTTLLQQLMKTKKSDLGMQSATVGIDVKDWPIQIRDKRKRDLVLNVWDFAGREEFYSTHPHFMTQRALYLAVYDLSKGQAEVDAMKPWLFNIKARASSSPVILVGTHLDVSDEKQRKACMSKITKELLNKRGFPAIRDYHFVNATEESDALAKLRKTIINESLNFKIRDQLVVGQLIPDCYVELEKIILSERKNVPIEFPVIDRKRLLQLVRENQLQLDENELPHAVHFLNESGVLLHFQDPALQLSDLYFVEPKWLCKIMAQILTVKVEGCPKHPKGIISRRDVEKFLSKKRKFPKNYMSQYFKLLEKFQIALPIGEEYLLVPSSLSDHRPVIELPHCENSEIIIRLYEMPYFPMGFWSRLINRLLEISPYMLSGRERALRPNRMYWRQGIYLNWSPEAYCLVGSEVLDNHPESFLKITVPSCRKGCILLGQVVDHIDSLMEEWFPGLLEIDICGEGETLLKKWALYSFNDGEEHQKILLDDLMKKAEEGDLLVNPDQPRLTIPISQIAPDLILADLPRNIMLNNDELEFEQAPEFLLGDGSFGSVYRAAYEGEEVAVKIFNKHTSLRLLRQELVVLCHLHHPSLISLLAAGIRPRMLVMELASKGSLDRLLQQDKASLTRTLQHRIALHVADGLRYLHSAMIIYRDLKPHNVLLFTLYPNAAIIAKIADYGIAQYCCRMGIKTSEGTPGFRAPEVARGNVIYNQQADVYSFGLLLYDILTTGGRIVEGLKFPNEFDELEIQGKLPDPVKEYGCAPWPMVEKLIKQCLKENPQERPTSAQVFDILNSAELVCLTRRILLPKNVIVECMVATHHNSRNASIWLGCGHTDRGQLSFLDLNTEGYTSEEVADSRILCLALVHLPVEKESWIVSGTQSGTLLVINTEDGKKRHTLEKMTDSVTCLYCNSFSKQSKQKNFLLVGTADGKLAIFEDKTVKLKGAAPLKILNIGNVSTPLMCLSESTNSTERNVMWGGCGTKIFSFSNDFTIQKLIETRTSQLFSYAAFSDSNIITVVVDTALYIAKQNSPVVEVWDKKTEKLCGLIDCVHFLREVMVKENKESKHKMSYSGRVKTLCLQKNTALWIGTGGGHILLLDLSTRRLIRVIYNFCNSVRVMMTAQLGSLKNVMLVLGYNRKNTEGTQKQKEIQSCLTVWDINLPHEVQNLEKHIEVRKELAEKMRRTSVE
Procedure: (§1) LRRK2 kinase activity was measured using a LanthaScreen™ Kinase Activity Assay from ThermoFisher Scientific. Recombinant wild type or G2019S-LRRK2 protein (Life Technologies, PR8604B or PV4881, respectively), was incubated with a fluorescein-labeled peptide substrate called LRRKtide that is based upon ezrin/radixin/moesin (ERM) (Life Technologies, PV4901) in the presence of ATP and serially diluted compound. After an incubation period of 1 hr, the phosphotransferase activity was stopped and a terbium-labelled anti-pERM antibody (Life Technologies, PV4899) was added to detect the phosphorylation of LRRKtide by measuring the time resolved-Forster resonant energy transfer (TR-FRET) signal from the terbium label on the antibody to the fluorescein tag on LRRKtide, expressed as the 520 nm/495 nm emission ratio. Compound-dependent inhibition of the TR-FRET signal was used to generate a concentration-response curve for IC50 determination.
(§2) The assay was carried out under the following protocol conditions: 1 mM compound in DMSO was serially diluted 1:3, 11 points in DMSO with a Biomek FX and 0.1 μL of the diluted compound was subsequently stamped into the assay plate (384-well format Lumitrac 200, Greiner, 781075) with an Echo Labcyte such that the final compound concentration in the assay was 10 μM to […]. Subsequently, 5 μL of 2× kinase solution (2.9 nM final concentration) was added to the assay plate in assay buffer composed of 50 mM Tris pH 8.5 (Sigma, T6791), 5 mM MgCl2 (Fluka, 63020), 1 mM EGTA (Sigma, E3889), 0.01% BRIJ-35 (Sigma, P1254) and 2 mM DTT. The reaction was started by addition of 2×ATP/LRRKtide solution in assay buffer such that the final concentration was 400 nM LRRKtide and 25 μM ATP. After 60 min incubation at room temperature, the reaction was stopped by addition of […] containing a final concentration of 2 nM anti-pERM antibody and 10 mM EDTA. After a 30 min incubation at RT, the TR-FRET signal was measured on a Wallac 2104 EnVision® multilabel reader at an excitation wavelength of 340 nm and reading emission at 520 nm and 495 nm. The ratio of the 520 nm and 495 nm emission was used to analyze the data.

[2] = target: T2, Recombinant G2019S-LRRK2 protein (Homo sapiens, UniProt Q5S007, G2019S); experiment: LanthaScreen Kinase Activity Assay (TR-FRET), G2019S-LRRK2; format: biochemical; settings: class symbols; 25 μM ATP, 400 nM LRRKtide, 2.9 nM kinase, 60 min at room temperature
T2 construct: purchased Life Technologies PV4881
T2 sequence (Q5S007 whole entry G2019S): as the sequence (Q5S007 whole entry) above, with G2019S counted along it
Procedure: as §1, §2

[3] = numeric bound instead of class symbol

| Compound | IC50 ([1]; class symbols) [nM] | IC50 [2] [nM] | IC50 [1, 3] [nM] |
| --- | --- | --- | --- |
| Cn1ncc2c(F)c(C(=O)Nc3ccc4[nH]nc(N5CC(C(=O)O)C5)c4c3)c(F)cc21 [Example 142, 1-(5-(4,6-difluoro-1-methyl-1H-indazole-5-carboxamido)-1H-indazol-3-yl)azetidine-3-carboxylic acid] | – | 1000 to 10000 | > 10000 |
| Cn1ncc2c(F)c(C(=O)Nc3ccc4[nH]nc(-c5ccccc5F)c4c3)c(F)cc21 [Example 78, 4,6-Difluoro-N-(3-(2-fluorophenyl)-1H-indazol-5-yl)-1-methyl-1H-indazole-5-carboxamide] | 100 to 1000 | ≤ 100 | – |
| Cn1ncc2c(F)c(C(=O)Nc3ccc4[nH]nc(C#N)c4c3)c(F)cc21 [Example 105, N-(3-Cyano-1H-indazol-5-yl)-4,6-difluoro-1-methyl-1H-indazole-5-carboxamide] | 100 to 1000 | ≤ 100 | – |
| Cc1n[nH]c2ccc(NC(=O)c3c(Cl)cn4cnnc4c3Cl)cc12 [Example 56, 6,8-Dichloro-N-(3-methyl-1H-indazol-5-yl)-[1,2,4]triazolo[4,3-a]pyridine-7-carboxamide] | 100 to 1000 | ≤ 100 | – |
| COc1cnccc1-c1n[nH]c2ccc(NC(=O)c3c(F)cc4c(cnn4C)c3F)cc12 [Example 103, 4,6-Difluoro-N-(3-(3-methoxypyridin-4-yl)-1H-indazol-5-yl)-1-methyl-1H-indazole-5-carboxamide] | 100 to 1000 | ≤ 100 | – |
| Cn1ncc2c(F)c(C(=O)Nc3ccc4[nH]nc(-c5cnn(C(F)F)c5)c4c3)c(F)cc21 [Example 86, N-(3-(1-(Difluoromethyl)-1H-pyrazol-4-yl)-1H-indazol-5-yl)-4,6-difluoro-1-methyl-1H-indazole-5-carboxamide] | ≤ 100 | ≤ 100 | – |
| Cc1noc(C)c1-c1n[nH]c2ccc(NC(=O)c3c(F)cc4c(cnn4C)c3F)cc12 [Example 36, N-(3-(3,5-Dimethylisoxazol-4-yl)-1H-indazol-5-yl)-4,6-difluoro-1-methyl-1H-indazole-5-carboxamide] | – | 1000 to 10000 | > 10000 |
| Cc1cc2nn[nH]c2cc1C(=O)Nc1ccc2[nH]nc(Br)c2c1 [Example 15, N-(3-Bromo-1H-indazol-5-yl)-5-methyl-1H-benzo[d][1,2,3]triazole-6-carboxamide] | 1000 to 10000 | ≤ 100 | – |
| Cn1ncc2c(F)c(C(=O)Nc3ccc4[nH]nc(C5CCOC5)c4c3)c(F)cc21 (stereo not drawn) [Example 104, 4,6-Difluoro-1-methyl-N-(3-(tetrahydrofuran-3-yl)-1H-indazol-5-yl)-1H-indazole-5-carboxamide] | 1000 to 10000 | 100 to 1000 | – |
| COc1ccc(C)cc1-c1n[nH]c2ccc(NC(=O)c3c(F)cc4c(cnn4C)c3F)cc12 [Example 89, 4,6-Difluoro-N-(3-(2-methoxy-5-methylphenyl)-1H-indazol-5-yl)-1-methyl-1H-indazole-5-carboxamide] | 100 to 1000 | ≤ 100 | – |
| Cc1cc2c(cnn2C)nc1C(=O)Nc1ccc2[nH]nc(-c3cnco3)c2c1 [Example 160, 1,6-Dimethyl-N-(3-(oxazol-5-yl)-1H-indazol-5-yl)-1H-pyrazolo[4,3-b]pyridine-5-carboxamide] | ≤ 100 | ≤ 100 | – |
| Cn1ncc2c(F)c(C(=O)Nc3ccc4[nH]nc(C5=CCCO5)c4c3)c(F)cc21 [Example 72, N-(3-(4,5-Dihydrofuran-2-yl)-1H-indazol-5-yl)-4,6-difluoro-1-methyl-1H-indazole-5-carboxamide] | 1000 to 10000 | 100 to 1000 | – |
| Cn1ncc2c(F)c(C(=O)Nc3ccc4[nH]nc(Cc5ccccc5)c4c3)c(F)cc21 [Example 140, N-(3-Benzyl-1H-indazol-5-yl)-4,6-difluoro-1-methyl-1H-indazole-5-carboxamide] | 1000 to 10000 | 100 to 1000 | – |
| Cc1nc2cncn2c(C)c1C(=O)Nc1ccc2[nH]nc(I)c2c1 [Example 111, N-(3-Iodo-1H-indazol-5-yl)-2,4-dimethylimidazo[1,5-a]pyrimidine-3-carboxamide] | ≤ 100 | ≤ 100 | – |
| Cn1ncc2c(F)c(C(=O)Nc3ccc4[nH]nc(-c5ccc(N6CCOCC6)cc5)c4c3)c(F)cc21 [Example 94, 4,6-Difluoro-1-methyl-N-(3-(4-morpholinophenyl)-1H-indazol-5-yl)-1H-indazole-5-carboxamide] | ≤ 100 | ≤ 100 | – |
| Cc1cc2cncn2c(C)c1C(=O)Nc1ccc2[nH]nc(C)c2c1 [Example 55, 5,7-Dimethyl-N-(3-methyl-1H-indazol-5-yl)imidazo[1,5-a]pyridine-6-carboxamide] | 1000 to 10000 | ≤ 100 | – |
| Cc1cc2[nH]nnc2c(C)c1C(=O)Nc1ccc2[nH]nc(C)c2c1 [Example 11, 4,6-Dimethyl-N-(3-methyl-1H-indazol-5-yl)-1H-benzo[d][1,2,3]triazole-5-carboxamide] | 1000 to 10000 | 100 to 1000 | – |

Other lines, results leading:

| IC50 ([1]; class symbols) [nM] | IC50 [2] [nM] | IC50 [1, 3] [nM] | Compound |
| --- | --- | --- | --- |
| ≤ 100 | ≤ 100 | – | Cc1cc2cnnn2c(C)c1C(=O)Nc1ccc2[nH]nc(-c3ccoc3)c2c1 [Example 150, N-(3-(Furan-3-yl)-1H-indazol-5-yl)-5,7-dimethyl-[1,2,3]triazolo[1,5-a]pyridine-6-carboxamide] |
| ≤ 100 | ≤ 100 | – | Cc1cc2c(cnn2C)c(C)c1C(=O)Nc1ccc2[nH]nc(-c3ccoc3)c2c1 [Example 157, N-(3-(Furan-3-yl)-1H-indazol-5-yl)-1,4,6-trimethyl-1H-indazole-5-carboxamide] |
| ≤ 100 | ≤ 100 | – | Cc1cc2cnnn2c(C)c1C(=O)Nc1ccc2[nH]nc(-c3ccccc3)c2c1 [Example 48, 5,7-Dimethyl-N-(3-phenyl-1H-indazol-5-yl)-[1,2,3]triazolo[1,5-a]pyridine-6-carboxamide] |
| 100 to 1000 | ≤ 100 | – | Cn1ncc2c(F)c(C(=O)Nc3ccc4[nH]nc(-c5cocn5)c4c3)c(F)cc21 [Example 136, 4,6-Difluoro-1-methyl-N-(3-(oxazol-4-yl)-1H-indazol-5-yl)-1H-indazole-5-carboxamide] |
| ≤ 100 | ≤ 100 | – | O=C(Nc1ccc2[nH]nc(-c3ccoc3)c2c1)C1CCc2nncn2C1 (single isomer, unassigned) [Example 162a] |
| 100 to 1000 | ≤ 100 | – | Cc1cc2[nH]ccc2cc1C(=O)Nc1ccc2[nH]nc(-c3ccccc3)c2c1 [Example 20, 6-Methyl-N-(3-phenyl-1H-indazol-5-yl)-1H-indole-5-carboxamide] |
| – | 100 to 1000 | > 10000 | Cn1ncc2c(F)c(C(=O)Nc3ccc4[nH]nc(-c5ccccc5C#N)c4c3)c(F)cc21 [Example 74, N-(3-(2-Cyanophenyl)-1H-indazol-5-yl)-4,6-difluoro-1-methyl-1H-indazole-5-carboxamide] |
| 100 to 1000 | 100 to 1000 | – | O=C(Nc1ccc2[nH]nc(-c3ccoc3)c2c1)c1ccn2ccnc2c1 [Example 118, N-(3-(Furan-3-yl)-1H-indazol-5-yl)imidazo[1,2-a]pyridine-7-carboxamide] |
| ≤ 100 | ≤ 100 | – | Cc1cc2cnnn2c(C)c1C(=O)Nc1ccc2[nH]nc(-c3ccco3)c2c1 [Example 155, N-(3-(Furan-2-yl)-1H-indazol-5-yl)-5,7-dimethyl-[1,2,3]triazolo[1,5-a]pyridine-6-carboxamide] |
| 100 to 1000 | ≤ 100 | – | O=C(Nc1ccc2[nH]nc(-c3ccoc3)c2c1)c1ccc2nsnc2c1 [Example 120, N-(3-(Furan-3-yl)-1H-indazol-5-yl)benzo[c][1,2,5]thiadiazole-5-carboxamide] |
